Reference: ChEMBL document CHEMBL3588806, “Generation of Broad-Spectrum Antifungal Drug Candidates from the Natural Product Compound Aureobasidin A” (ACS Med Chem Lett, 2015)
≈ marks a conversion by molar mass, not a printed value. Calls of active or inactive are those of the source. The calls are words filed in the database; no cut-off is given here. Starred links: 1 amine or outer side, 2 acyl side, 3 side chain; linkers in the order of their positions; H or OH if unused. Non-standard residues stand in square brackets, D forms with d. Residues, ends and D or L forms follow the SMILES beside them. X2 = CN([C@@H](Cc1cccc(-c2cccc(-c3ccccc3)c2)c1)C(=O)[*:2])[*:1]; X4 = CN([C@@H](Cc1cccc(-c2ccc(-c3ccccc3)cc2)c1)C(=O)[*:2])[*:1]; X12 = CC(=O)Nc1ccc(-c2cccc(C[C@@H](C(=O)[*:2])N(C)[*:1])c2)cc1; X15 = CNC(=O)c1ccc(-c2cccc(C[C@@H](C(=O)[*:2])N(C)[*:1])c2)cc1; X7 = CN([C@@H](Cc1cccc(B2OC(C)(C)C(C)(C)O2)c1)C(=O)[*:2])[*:1]; X13 = COc1ccc(-c2cccc(C[C@@H](C(=O)[*:2])N(C)[*:1])c2)cc1; X3 = CN([C@@H](Cc1cccc(-c2ccc(Cl)cc2)c1)C(=O)[*:2])[*:1]; X8 = CN([C@@H](Cc1cccc(-c2ccc(Cl)nc2)c1)C(=O)[*:2])[*:1]; X10 = CCCCCC/C=C/c1cccc(C[C@@H](C(=O)[*:2])N(C)[*:1])c1; X6 = CN([C@@H](Cc1cccc(-c2ccccc2Cl)c1)C(=O)[*:2])[*:1]; X11 = CN([C@@H](Cc1ccc(-c2cccnc2)cc1)C(=O)[*:2])[*:1]; X14 = CN([C@@H](Cc1cccc(C2=CCCCC2)c1)C(=O)[*:2])[*:1]; X9 = CN([C@@H](Cc1cccc(-c2ccncc2)c1)C(=O)[*:2])[*:1]; NMePhe(3-Ph) = CN[C@@H](Cc1cccc(-c2ccccc2)c1)C(=O)O; X5 = CN([C@@H](Cc1cccc(B(O)O)c1)C(=O)[*:2])[*:1]; NMePhe(3-Br) = CN[C@@H](Cc1cccc(Br)c1)C(=O)O; NMePhe(3-I) = CN[C@@H](Cc1cccc(I)c1)C(=O)O; Hmp(2R,3S) = CC[C@H](C)[C@@H](O)C(=O)O; NMeVal(β-OH) = CN[C@H](C(=O)O)C(C)(C)O; NMeD = CN[C@@H](CC(=O)O)C(=O)O; NMeV = CN[C@H](C(=O)O)C(C)C

Columns and labels:
Assay type in all cases: functional
Aspergillus fumigatus = assay: Antifungal activity against Aspergillus fumigatus by broth dilution method
[1] = Ratio of MIC for Aspergillus fumigatus to MIC for Candida albicans
Candida albicans = assay: Antifungal activity against Candida albicans by broth dilution method

SMILES	MIC (Aspergillus fumigatus)	Ratio [1]	MIC (Candida albicans)	Activity (Candida albicans)
CC[C@H](C)[C@@H]1NC(=O)[C@@H]2CCCN2C(=O)[C@H](Cc2cccc(-c3ccncc3)c2)N(C)C(=O)[C@H](Cc2ccccc2)NC(=O)[C@H](C(C)C)N(C)C(=O)[C@@H]([C@@H](C)CC)OC(=O)[C@H](C(C)(C)O)N(C)C(=O)[C@H](CC(C)C)NC(=O)[C@H](C(C)C)N(C)C1=O (cyclo(F[X9]PI[NMeV]L[NMeVal(β-OH)][Hmp(2R,3S)][NMeV]))	< 1.25 µg/mL	> 10	< 0.025 µg/mL	–
CCCCCC/C=C/c1cccc(C[C@H]2C(=O)N3CCC[C@H]3C(=O)N[C@@H]([C@@H](C)CC)C(=O)N(C)[C@@H](C(C)C)C(=O)N[C@@H](CC(C)C)C(=O)N(C)[C@@H](C(C)(C)O)C(=O)O[C@H]([C@@H](C)CC)C(=O)N(C)[C@@H](C(C)C)C(=O)N[C@@H](Cc3ccccc3)C(=O)N2C)c1 (cyclo(F[X10]PI[NMeV]L[NMeVal(β-OH)][Hmp(2R,3S)][NMeV]))	> 5 µg/mL	–	–	–
CC[C@H](C)[C@@H]1NC(=O)[C@@H]2CCCN2C(=O)[C@H](Cc2cccc(Br)c2)N(C)C(=O)[C@H](CC(=O)O)NC(=O)[C@H](C(C)C)N(C)C(=O)[C@@H]([C@@H](C)CC)OC(=O)[C@H](C(C)(C)O)N(C)C(=O)[C@H](CC(C)C)NC(=O)[C@H](C(C)C)N(C)C1=O (cyclo(D[NMePhe(3-Br)]PI[NMeV]L[NMeVal(β-OH)][Hmp(2R,3S)][NMeV]))	10 µg/mL (≈ 8.71 µM)	–	5 µg/mL (≈ 4.35 µM)	–
CC[C@H](C)[C@@H]1NC(=O)[C@@H]2CCCN2C(=O)[C@H](Cc2cccc(-c3ccc(Cl)cc3)c2)N(C)C(=O)[C@H](Cc2ccccc2)NC(=O)[C@H](C(C)C)N(C)C(=O)[C@@H]([C@@H](C)CC)OC(=O)[C@H](C(C)(C)O)N(C)C(=O)[C@H](CC(C)C)NC(=O)[C@H](C(C)C)N(C)C1=O (cyclo(F[X3]PI[NMeV]L[NMeVal(β-OH)][Hmp(2R,3S)][NMeV]))	< 2.5 µg/mL	> 10	< 0.5 µg/mL	–
CC[C@H](C)[C@@H]1NC(=O)[C@@H]2CCCN2C(=O)[C@H](Cc2cccc(B3OC(C)(C)C(C)(C)O3)c2)N(C)C(=O)[C@H](Cc2ccccc2)NC(=O)[C@H](C(C)C)N(C)C(=O)[C@@H]([C@@H](C)CC)OC(=O)[C@H](C(C)(C)O)N(C)C(=O)[C@H](CC(C)C)NC(=O)[C@H](C(C)C)N(C)C1=O (cyclo(F[X7]PI[NMeV]L[NMeVal(β-OH)][Hmp(2R,3S)][NMeV]))	10 µg/mL (≈ 8.15 µM)	–	< 0.5 µg/mL	–
CC[C@H](C)[C@@H]1NC(=O)[C@@H]2CCCN2C(=O)[C@H](Cc2cccc(C3=CCCCC3)c2)N(C)C(=O)[C@H](Cc2ccccc2)NC(=O)[C@H](C(C)C)N(C)C(=O)[C@@H]([C@@H](C)CC)OC(=O)[C@H](C(C)(C)O)N(C)C(=O)[C@H](CC(C)C)NC(=O)[C@H](C(C)C)N(C)C1=O (cyclo(F[X14]PI[NMeV]L[NMeVal(β-OH)][Hmp(2R,3S)][NMeV]))	> 5 µg/mL	–	–	–
CC[C@H](C)[C@@H]1NC(=O)[C@@H]2CCCN2C(=O)[C@H](Cc2cccc(-c3ccc(OC)cc3)c2)N(C)C(=O)[C@H](Cc2ccccc2)NC(=O)[C@H](C(C)C)N(C)C(=O)[C@@H]([C@@H](C)CC)OC(=O)[C@H](C(C)(C)O)N(C)C(=O)[C@H](CC(C)C)NC(=O)[C@H](C(C)C)N(C)C1=O (cyclo(F[X13]PI[NMeV]L[NMeVal(β-OH)][Hmp(2R,3S)][NMeV]))	–	–	5 µg/mL (≈ 4.14 µM)	–
CC[C@H](C)[C@@H]1NC(=O)[C@@H]2CCCN2C(=O)[C@H](Cc2cccc(-c3ccc(NC(C)=O)cc3)c2)N(C)C(=O)[C@H](Cc2ccccc2)NC(=O)[C@H](C(C)C)N(C)C(=O)[C@@H]([C@@H](C)CC)OC(=O)[C@H](C(C)(C)O)N(C)C(=O)[C@H](CC(C)C)NC(=O)[C@H](C(C)C)N(C)C1=O (cyclo(F[X12]PI[NMeV]L[NMeVal(β-OH)][Hmp(2R,3S)][NMeV]))	> 5 µg/mL	–	–	–
CC[C@H](C)[C@@H]1NC(=O)[C@@H]2CCCN2C(=O)[C@H](Cc2cccc(-c3ccc(-c4ccccc4)cc3)c2)N(C)C(=O)[C@H](Cc2ccccc2)NC(=O)[C@H](C(C)C)N(C)C(=O)[C@@H]([C@@H](C)CC)OC(=O)[C@H](C(C)(C)O)N(C)C(=O)[C@H](CC(C)C)NC(=O)[C@H](C(C)C)N(C)C1=O (cyclo(F[X4]PI[NMeV]L[NMeVal(β-OH)][Hmp(2R,3S)][NMeV]))	> 5 µg/mL	–	< 5 µg/mL	–
CC[C@H](C)[C@@H]1NC(=O)[C@@H]2CCCN2C(=O)[C@H](Cc2cccc(Br)c2)N(C)C(=O)[C@H](Cc2ccccc2)NC(=O)[C@H](C(C)C)N(C)C(=O)[C@@H]([C@@H](C)CC)OC(=O)[C@H](C(C)(C)O)N(C)C(=O)[C@H](CC(C)C)NC(=O)[C@H](C(C)C)N(C)C1=O (cyclo(F[NMePhe(3-Br)]PI[NMeV]L[NMeVal(β-OH)][Hmp(2R,3S)][NMeV]))	2.5 µg/mL (≈ 2.12 µM)	–	0.031 µg/mL (≈ 0.0263 µM)	–
CC[C@H](C)[C@@H]1NC(=O)[C@@H]2CCCN2C(=O)[C@H](Cc2cccc(-c3ccccc3Cl)c2)N(C)C(=O)[C@H](Cc2ccccc2)NC(=O)[C@H](C(C)C)N(C)C(=O)[C@@H]([C@@H](C)CC)OC(=O)[C@H](C(C)(C)O)N(C)C(=O)[C@H](CC(C)C)NC(=O)[C@H](C(C)C)N(C)C1=O (cyclo(F[X6]PI[NMeV]L[NMeVal(β-OH)][Hmp(2R,3S)][NMeV]))	< 1.25 µg/mL	> 10	< 0.5 µg/mL	–
CC[C@H](C)[C@@H]1NC(=O)[C@@H]2CCCN2C(=O)[C@H](Cc2cccc(-c3ccc(C(=O)NC)cc3)c2)N(C)C(=O)[C@H](Cc2ccccc2)NC(=O)[C@H](C(C)C)N(C)C(=O)[C@@H]([C@@H](C)CC)OC(=O)[C@H](C(C)(C)O)N(C)C(=O)[C@H](CC(C)C)NC(=O)[C@H](C(C)C)N(C)C1=O (cyclo(F[X15]PI[NMeV]L[NMeVal(β-OH)][Hmp(2R,3S)][NMeV]))	> 5 µg/mL	–	–	–
CC[C@H](C)[C@@H]1NC(=O)[C@@H]2CCCN2C(=O)[C@H](Cc2ccc(-c3cccnc3)cc2)N(C)C(=O)[C@H](Cc2ccccc2)NC(=O)[C@H](C(C)C)N(C)C(=O)[C@@H]([C@@H](C)CC)OC(=O)[C@H](C(C)(C)O)N(C)C(=O)[C@H](CC(C)C)NC(=O)[C@H](C(C)C)N(C)C1=O (cyclo(F[X11]PI[NMeV]L[NMeVal(β-OH)][Hmp(2R,3S)][NMeV]))	< 2.5 µg/mL	–	–	Active
CC[C@H](C)[C@@H]1NC(=O)[C@@H]2CCCN2C(=O)[C@H](Cc2cccc(-c3ccccc3)c2)N(C)C(=O)[C@H](Cc2ccccc2)NC(=O)[C@H](C(C)C)N(C)C(=O)[C@@H]([C@@H](C)CC)OC(=O)[C@H](C(C)(C)O)N(C)C(=O)[C@H](CC(C)C)NC(=O)[C@H](C(C)C)N(C)C1=O (cyclo(F[NMePhe(3-Ph)]PI[NMeV]L[NMeVal(β-OH)][Hmp(2R,3S)][NMeV]))	< 0.94 µg/mL	> 10	< 0.05 µg/mL	–
CC[C@H](C)[C@@H]1NC(=O)[C@@H]2CCCN2C(=O)[C@H](Cc2cccc(-c3cccc(-c4ccccc4)c3)c2)N(C)C(=O)[C@H](Cc2ccccc2)NC(=O)[C@H](C(C)C)N(C)C(=O)[C@@H]([C@@H](C)CC)OC(=O)[C@H](C(C)(C)O)N(C)C(=O)[C@H](CC(C)C)NC(=O)[C@H](C(C)C)N(C)C1=O (cyclo(F[X2]PI[NMeV]L[NMeVal(β-OH)][Hmp(2R,3S)][NMeV]))	> 5 µg/mL	–	< 5 µg/mL	–
CC[C@H](C)[C@@H]1NC(=O)[C@@H]2CCCN2C(=O)[C@H](Cc2cccc(-c3ccc(Cl)nc3)c2)N(C)C(=O)[C@H](Cc2ccccc2)NC(=O)[C@H](C(C)C)N(C)C(=O)[C@@H]([C@@H](C)CC)OC(=O)[C@H](C(C)(C)O)N(C)C(=O)[C@H](CC(C)C)NC(=O)[C@H](C(C)C)N(C)C1=O (cyclo(F[X8]PI[NMeV]L[NMeVal(β-OH)][Hmp(2R,3S)][NMeV]))	< 1.25 µg/mL	> 10	< 0.025 µg/mL	–
CC[C@H](C)[C@@H]1NC(=O)[C@@H]2CCCN2C(=O)[C@H](CC(=O)O)N(C)C(=O)[C@H](CC(=O)O)NC(=O)[C@H](C(C)C)N(C)C(=O)[C@@H]([C@@H](C)CC)OC(=O)[C@H](C(C)(C)O)N(C)C(=O)[C@H](CC(C)C)NC(=O)[C@H](C(C)C)N(C)C1=O (cyclo(D[NMeD]PI[NMeV]L[NMeVal(β-OH)][Hmp(2R,3S)][NMeV]))	> 100 µg/mL	–	10 µg/mL (≈ 9.64 µM)	–
CC[C@H](C)[C@@H]1NC(=O)[C@@H]2CCCN2C(=O)[C@H](Cc2cccc(I)c2)N(C)C(=O)[C@H](Cc2ccccc2)NC(=O)[C@H](C(C)C)N(C)C(=O)[C@@H]([C@@H](C)CC)OC(=O)[C@H](C(C)(C)O)N(C)C(=O)[C@H](CC(C)C)NC(=O)[C@H](C(C)C)N(C)C1=O (cyclo(F[NMePhe(3-I)]PI[NMeV]L[NMeVal(β-OH)][Hmp(2R,3S)][NMeV]))	> 5 µg/mL	–	2.5 µg/mL (≈ 2.04 µM)	–
CC[C@H](C)[C@@H]1NC(=O)[C@@H]2CCCN2C(=O)[C@H](Cc2cccc(B(O)O)c2)N(C)C(=O)[C@H](Cc2ccccc2)NC(=O)[C@H](C(C)C)N(C)C(=O)[C@@H]([C@@H](C)CC)OC(=O)[C@H](C(C)(C)O)N(C)C(=O)[C@H](CC(C)C)NC(=O)[C@H](C(C)C)N(C)C1=O (cyclo(F[X5]PI[NMeV]L[NMeVal(β-OH)][Hmp(2R,3S)][NMeV]))	> 100 µg/mL	–	< 0.05 µg/mL	–
